Test results: ChEMBL document CHEMBL5303304, “EUbOPEN Chemogenomics Library - IncuCyte” (2023)

Experiments:
Type in all cases: toxicity, cell-based
[1] = tested on: HEK-293T; assay: Incucyte cell viability with HEK293T; settings: human, 10 µM, compound concentration 10 uM
[2] = tested on: Fibroblast; assay: Incucyte cell viability with human fibroblast; settings: 10 µM, compound concentration 10 uM
[3] = tested on: U2OS; assay: Incucyte cell viability with U2OS; settings: human, 10 µM, compound concentration 10 uM
Also: unitless GR value; below 1 slowed growth and below 0 cell loss.

Row | SMILES | Growth Rate ([1]; 6 h, replicate number 1) | Growth Rate ([1]; 6 h, replicate number 2) | Growth Rate ([1]; 12 h, replicate number 2) | Growth Rate ([1]; 18 h, replicate number 1) | Growth Rate ([1]; 18 h, replicate number 2) | Growth Rate ([1]; 24 h, replicate number 1) | Growth Rate ([1]; 24 h, replicate number 2) | Growth Rate ([2]; 6 h, replicate number 1) | Growth Rate ([2]; 6 h, replicate number 2) | Growth Rate ([2]; 12 h, replicate number 1) | Growth Rate ([2]; 12 h, replicate number 2) | Growth Rate ([2]; 18 h, replicate number 1) | Growth Rate ([2]; 24 h, replicate number 2) | Growth Rate ([3]; 6 h, replicate number 1) | Growth Rate ([3]; 12 h, replicate number 1) | Growth Rate ([3]; 18 h, replicate number 1) | Growth Rate ([3]; 24 h, replicate number 1) | Growth Rate ([3]; 24 h, replicate number 2) | Growth Rate ([2]; 0 h, replicate number 2) | Growth Rate ([2]; 18 h, replicate number 2) | other results
1 | Cc1ccc(S(=O)(=O)Nc2ccc(-n3nc(C(F)(F)F)cc3C(F)(F)F)cc2)cc1 | 0.36 | 0.63 | 0.66 | 0.47 | 0.81 | 0.62 | 0.92 | -0.21 | -1 | -1 | 0.78 | 0.74 | 0.83 | 0.01 | 0.91 | 0.74 | 0.84 | 0.72 |  |  | Growth Rate ([1]; 12 h, replicate number 1): 0.58; Growth Rate ([3]; 6 h, replicate number 2): 0.69; Growth Rate ([3]; 12 h, replicate number 2): 0.8; Growth Rate ([3]; 18 h, replicate number 2): 0.83
2 | COc1cc2ncnc(Nc3ccc(F)c(Cl)c3)c2cc1OCCN(C)C[C@H](C)O | 0.36 | 0.69 | 0.49 | 0.65 | 0.69 | 0.65 | 0.73 | -0.42 | 0.44 | -0.2 | -0.12 | -0.23 | 0 | 0.7 | 0.68 | 0.77 | 0.92 | 0.42 | 0 | -0.05 | Growth Rate ([1]; 0 h, replicate number 2): -0.98; Growth Rate ([1]; 12 h, replicate number 1): 0.61; Growth Rate ([2]; 24 h, replicate number 1): -0.21; Growth Rate ([3]; 0 h, replicate number 2): 0.24; Growth Rate ([3]; 6 h, replicate number 2): 0.36; Growth Rate ([3]; 12 h, replicate number 2): 0.35; Growth Rate ([3]; 18 h, replicate number 2): 0.44
3 | COCCNc1cc(NC(=O)N2CCCc3cc(CN4CCN(C)CC4=O)c(C=O)nc32)ncc1C#N [FGF401] | 0.68 | 0.95 | 0.82 | 0.87 | 0.98 |  |  | 0.08 |  | -1 |  | 0.24 |  | 0.86 | 0.86 | 0.93 | 0.98 |  | 0.95 |  | Growth Rate ([1]; 0 h, replicate number 2): 0.45; Growth Rate ([2]; 24 h, replicate number 1): 0.74; Growth Rate ([3]; 0 h, replicate number 1): -0.62
4 | C=CC(=O)Nc1cccc(C(=O)Nc2ccc(Nc3cc(-c4c(-c5ccc(F)cc5)nc(SC)n4C)ccn3)cc2)c1 | 0.54 | 0.39 | 0.34 | 0.47 | 0.46 | 0.57 |  |  |  |  |  |  |  |  |  |  |  | 0.97 | 0.71 |  | Growth Rate ([1]; 12 h, replicate number 1): 0.55; Growth Rate ([2]; 0 h, replicate number 1): -0.95
5 | Cc1ccc(C(=O)Nc2cc(N3CCN(C)CC3)cc(C(F)(F)F)c2)cc1-n1cc(-c2cnn(C)c2C)nn1.Cl |  |  |  |  |  |  |  | 0.66 | -0.05 | 0.43 | 0.19 | 0.22 | 0.18 | 0.35 | 0.71 | 0.92 | 0.82 | 0.66 | 0.61 | 0.15 | Growth Rate ([1]; 0 h, replicate number 1): -0.85; Growth Rate ([2]; 24 h, replicate number 1): 0.44; Growth Rate ([3]; 0 h, replicate number 1): 0.94; Growth Rate ([3]; 6 h, replicate number 2): 0.77; Growth Rate ([3]; 12 h, replicate number 2): 0.58; Growth Rate ([3]; 18 h, replicate number 2): 0.73
6 | c1cnc2cc3c(cc2n1)[C@@H]1CNC[C@H]3C1 [VARENICLINE] | 0.65 | 0.78 | 0.87 |  | 0.95 | 0.99 |  |  |  |  |  | -0.31 |  |  | 0.98 | 0.91 | 0.92 | 0.9 |  |  | Growth Rate ([1]; 0 h, replicate number 2): 0.72; Growth Rate ([2]; 0 h, replicate number 1): 0.28; Growth Rate ([3]; 0 h, replicate number 1): 0.97; Growth Rate ([3]; 6 h, replicate number 2): 0.65; Growth Rate ([3]; 12 h, replicate number 2): 0.82; Growth Rate ([3]; 18 h, replicate number 2): 1
7 | Cc1c(N2CCNCC2)nc2ccc(Br)cc2c1C(=O)NC[C@H](CCC(=O)O)c1ccccc1Cl [BAY-403] | 0.58 | 0.8 | 0.81 | 0.76 | 0.9 | 0.88 |  |  | 0.04 |  | 0.12 |  | 0.7 | 0.58 | 0.84 | 0.91 | 0.95 |  | 0.9 | 0.51 | Growth Rate ([1]; 0 h, replicate number 2): -0.32; Growth Rate ([2]; 0 h, replicate number 1): 0.47; Growth Rate ([3]; 0 h, replicate number 1): -0.04; Growth Rate ([3]; 6 h, replicate number 2): 0.52
8 | Nc1ncc2c(n1)-c1c([nH]c3ccc(C4CC4)cc13)CCCC2 | 0.37 | 0.69 | 0.69 | 0.74 | 0.8 | 0.71 | 0.85 | 0.08 | 0.5 | 0.76 | 0.75 |  |  |  | 0.85 | 0.93 | 1 | 0.88 |  | 0.79 | Growth Rate ([1]; 12 h, replicate number 1): 0.63; Growth Rate ([3]; 0 h, replicate number 1): -0.99; Growth Rate ([3]; 0 h, replicate number 2): 0.47; Growth Rate ([3]; 6 h, replicate number 2): -0.85; Growth Rate ([3]; 12 h, replicate number 2): 0.64; Growth Rate ([3]; 18 h, replicate number 2): 0.94
9 | COc1c(-c2cn(C3CCC(=O)NC3=O)nn2)csc1C(=O)N1CCCC1 (stereo not given) | 0.29 | 0.71 | 0.89 | 0.73 | 0.9 | 0.9 | 1 |  | 0.73 |  |  |  | 0.97 | 0.89 | 0.85 | 0.92 |  |  |  | 0.92 | Growth Rate ([1]; 0 h, replicate number 2): 0.78; Growth Rate ([1]; 12 h, replicate number 1): 0.77; Growth Rate ([2]; 0 h, replicate number 1): -1
10 | Cc1cc(C)c(NC(=O)C2CC3CCC2C3)c(C)c1 (stereo not given) |  | 0.65 |  |  |  |  |  | -0.94 | -0.52 |  | 0.78 |  | 0.97 | 0.68 | 0.47 | 0.75 | 0.83 |  |  | 0.75 | Growth Rate ([3]; 12 h, replicate number 2): 0.78
11 | CC(=O)Nc1c(F)cc(C(=O)N[C@H]2CC[C@H](O)CC2)cc1O[C@@H](C)c1ccccc1 [GSK046] |  | 0.69 | 0.74 | 0.95 |  | 0.71 | 0.83 | 0.63 | 0.19 | 0.75 | 0.74 | 0.6 | 1 | -0.86 | 0.72 | 0.79 | 0.83 | 0.84 | 0.44 | 0.93 | Growth Rate ([1]; 0 h, replicate number 1): 0.58; Growth Rate ([2]; 24 h, replicate number 1): 0.71; Growth Rate ([3]; 0 h, replicate number 1): -0.56; Growth Rate ([3]; 0 h, replicate number 2): 0.83; Growth Rate ([3]; 6 h, replicate number 2): 0.86; Growth Rate ([3]; 12 h, replicate number 2): 0.94; Growth Rate ([3]; 18 h, replicate number 2): 0.97
12 | COc1cc(O)c(C(CC(=O)N2C[C@H](C)C[C@H](C)C2)c2ccc3c(c2)OCO3)c(OC)c1 (stereo not given in full) |  |  |  |  |  |  |  | -0.32 | 1 | 0.5 |  | 0.1 |  |  |  |  |  |  | 0.14 | 0.88 | Growth Rate ([1]; 0 h, replicate number 1): 0.81; Growth Rate ([1]; 0 h, replicate number 2): -0.14; Growth Rate ([2]; 24 h, replicate number 1): 0.74; Growth Rate ([3]; 0 h, replicate number 1): 0.96; Growth Rate ([3]; 0 h, replicate number 2): 0.9
13 | N#CN1CC[C@H](C(=O)Nc2nc3c(s2)CN(C(=O)CN=[N+]=[N-])CC3)C1 [8RK64] |  | 0.66 | 0.81 |  | 0.93 |  | 0.94 |  |  | 0.41 |  |  |  |  |  |  |  | 0.89 | 0.48 |  | Growth Rate ([1]; 12 h, replicate number 1): 0.99; Growth Rate ([3]; 18 h, replicate number 2): 0.94
14 | CNc1nc(Nc2ccc(C(=O)N3CCOCC3)cc2OC)ncc1Cl | 0.75 | 0.81 |  | 0.99 | 0.96 | 0.92 | 0.96 |  | 0.67 |  | 0.72 |  | 0.99 | -0.99 |  |  |  |  |  | 0.63 | Growth Rate ([2]; 0 h, replicate number 1): -0.99
